Test results taken from BindingDB's records for doi:10.1021/jm030241s (National Cancer Institute-Frederick, 2003).

Biological target: Thymidine kinase (Human herpesvirus 1)
Test: Binding affinity constant against HSV-1 thymidine kinase

Ki: 62.9 µM
Structure (SMILES): O=c1[nH]c(=O)n([C@H]2C[C@H](O)[C@]3(CO)C[C@H]23)cc1C=CBr [5-((E)-2-Bromo-vinyl)-1-((1R,3S,4S,6S)-4-hydroxy-5-hydroxymethyl-bicyclo[3.1.0]hex-2-yl)-1H-pyrimidine-2,4-dione]
